In PubChem BioAssay AID2202554 (NIEHS Division of Translational Toxicology (DTT)):
Results filed as inconclusive are left out. Calls of active or inactive are those of the source. How the calls were made is not given here.

Tested on: S. typhimurium/E. coli reverse mutation, colony counts
Assay: Bacterial reverse mutation test (aka Ames test) summary data
Procedure, shortened: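 S. typhimurium his⁻ strains (TA97–TA1538) and E. coli WP2 uvrA pKM101 trp⁻, dosed over a range with or without rat, hamster or mouse liver S9. Preincubated 20 min at 37° C (or plate incorporation), plated in agar, incubated usually two days. Revertant colonies counted against negative controls.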

**Q.** Which outcome does the source give for `Oc1c(Br)cc(Br)cc1Br` here?
**A.** inactive; negative

**Q.** `COP(=O)(OC)O/C(=C\Cl)c1cc(Cl)c(Cl)cc1Cl` was tested. Which outcome did it give?
**A.** inactive; negative

**Q.** How did the outcome turn out when `O=C=S` was run?
**A.** active; weakly positive

**Q.** With `O=[N+]([O-])CCO` as the molecule, how does the outcome read?
**A.** active; positive

**Q.** Which outcome does the source give for `C=CC(=O)OCCBr` here?
**A.** active; positive

**Q.** `Nc1ccc([As](=O)(O)O)cc1` was tested. Which outcome did it give?
**A.** inactive; negative

**Q.** How did the outcome turn out when `O=P(Oc1ccccc1)(Oc1ccccc1)Oc1ccccc1` was run?
**A.** inactive; negative

**Q.** With `S=C([S-])NCCNC(=S)[S-].[Zn+2]` as the molecule, how does the outcome read?
**A.** inactive; negative

**Q.** How did the outcome turn out when `Cl/C=C/Cl` was run?
**A.** inactive; negative

**Q.** Which outcome does the source give for `Cc1ccc([N+](=O)[O-])c(C)c1` here?
**A.** active; positive

**Q.** With `CCCCCCCCCCCC(=O)N(CCO)CCO` as the molecule, how does the outcome read?
**A.** inactive; negative

**Q.** Which outcome does the source give for `CC(C)=CCC/C(C)=C/CC/C(C)=C/CC/C=C(\C)CC/C=C(\C)CCC=C(C)C` here?
**A.** inactive; negative

**Q.** Which outcome does the source give for `O=C(CCl)c1ccccc1` here?
**A.** inactive; negative

**Q.** `O=C(O)c1ccccc1[N+](=O)[O-]` was tested. Which outcome did it give?
**A.** active; positive

**Q.** `COc1cc(-c2ccc(N=C=O)c(OC)c2)ccc1N=C=O` was tested. Which outcome did it give?
**A.** active; positive

**Q.** `Cc1ccc2ncccc2c1` was tested. Which outcome did it give?
**A.** active; positive

**Q.** With `Brc1ccc(Oc2cc(Br)c(Br)cc2Br)c(Br)c1` as the molecule, how does the outcome read?
**A.** inactive; negative

**Q.** With `CCCCCCCCCCCCOS(=O)(=O)O` as the molecule, how does the outcome read?
**A.** inactive; negative

**Q.** With `Clc1nc(Cl)nc(Nc2ccccc2Cl)n1` as the molecule, how does the outcome read?
**A.** inactive; negative

**Q.** For `c1ccc2ncccc2c1`, which outcome is on record?
**A.** active; positive

**Q.** Which outcome does the source give for `CCOC(C)=O` here?
**A.** inactive; negative

**Q.** Which outcome does the source give for `Nc1ccc(O)c(C(=O)O)c1` here?
**A.** inactive; negative

**Q.** With `CCCCC(CC)COC(=O)c1cccc(C(=O)OCC(CC)CCCC)c1` (stereo unspecified) as the molecule, how does the outcome read?
**A.** inactive; negative

**Q.** With `c1ccc(COCc2ccccc2)cc1` as the molecule, how does the outcome read?
**A.** inactive; negative

**Q.** `COc1ccc(C(=O)c2ccccc2O)c(O)c1` was tested. Which outcome did it give?
**A.** active; positive

**Q.** How did the outcome turn out when `Cc1cccc([N+](=O)[O-])c1C(=O)O` was run?
**A.** active; positive

**Q.** How did the outcome turn out when `O=C(O)C(Br)Br` was run?
**A.** active; positive

**Q.** Which outcome does the source give for `CCCC(O)C(CC)CO` (stereo unspecified) here?
**A.** inactive; negative

**Q.** For `C[Si](C)(C)N[Si](C)(C)C`, which outcome is on record?
**A.** inactive; negative

**Q.** For `CC(Cl)(Cl)Cl`, which outcome is on record?
**A.** inactive; negative

**Q.** For `COc1cccc(N)c1`, which outcome is on record?
**A.** active; positive

**Q.** `CN(C)c1ccc(C(=N)c2ccc(N(C)C)cc2)cc1` was tested. Which outcome did it give?
**A.** active; positive

**Q.** `ON=C1CCCCC1` was tested. Which outcome did it give?
**A.** active; positive

**Q.** `OCc1ccco1` was tested. Which outcome did it give?
**A.** inactive; negative

**Q.** How did the outcome turn out when `CC1CO1` (stereo unspecified) was run?
**A.** active; positive

**Q.** Which outcome does the source give for `CC[C@H](CC[C@@H](C)[C@H]1CC[C@H]2[C@@H]3CC=C4C[C@@H](O)CC[C@]4(C)[C@H]3CC[C@]12C)C(C)C` here?
**A.** inactive; negative

**Q.** For `O=C(O)COc1cc(Cl)c(Cl)cc1Cl`, which outcome is on record?
**A.** inactive; negative

**Q.** With `[CH3][Sn]([CH3])([F])[F]` as the molecule, how does the outcome read?
**A.** inactive; negative

**Q.** How did the outcome turn out when `CCOC(C)(C)C` was run?
**A.** inactive; negative

**Q.** Which outcome does the source give for `Cc1ccc(C(C)(C)C)cc1` here?
**A.** inactive; negative

**Q.** How did the outcome turn out when `COc1c(C(C)(C)C)cc([N+](=O)[O-])c(C)c1[N+](=O)[O-]` was run?
**A.** inactive; negative

**Q.** `C[CH2][Pb]([CH2]C)([CH2]C)[CH2]C` was tested. Which outcome did it give?
**A.** inactive; negative

**Q.** `C[C@@H]1Cc2c(Cl)cc(C(=O)N[C@@H](Cc3ccccc3)C(=O)O)c(O)c2C(=O)O1` was tested. Which outcome did it give?
**A.** inactive; negative

**Q.** Which outcome does the source give for `O=C(O)c1cc(O)c2c(c1)[C@H]([C@H]1c3cc(C(=O)O)cc(O)c3C(=O)c3c(O[C@@H]4O[C@H](CO)[C@@H](O)[C@H](O)[C@H]4O)cccc31)c1cccc(O[C@@H]3O[C@H](CO)[C@@H](O)[C@H](O)[C@H]3O)c1C2=O` here?
**A.** inactive; negative

**Q.** Which outcome does the source give for `O.O=C([O-])c1ccccn1.O=C([O-])c1ccccn1.O=C([O-])c1ccccn1.[Cr+3]` here?
**A.** inactive; negative

**Q.** `O=[N+]([O-])c1ccc2c3c(cccc13)CC2` was tested. Which outcome did it give?
**A.** active; positive

**Q.** How did the outcome turn out when `C=C1C/C(=C/C)C(=O)O[C@@H]2CCN3CC=C(COC(=O)[C@@]1(O)CO)[C@H]23` was run?
**A.** active; positive

**Q.** For `Clc1ccc(Cl)c(Cl)c1`, which outcome is on record?
**A.** inactive; negative

**Q.** How did the outcome turn out when `Cc1ccccc1C` was run?
**A.** inactive; negative

**Q.** Which outcome does the source give for `CNCCO` here?
**A.** inactive; negative

**Q.** How did the outcome turn out when `N#CCO` was run?
**A.** inactive; negative

**Q.** `c1ccncc1` was tested. Which outcome did it give?
**A.** inactive; negative

**Q.** `O=C(Nc1cccc2c(=O)c3c(ccc4c5cc(NC(=O)c6ccccc6)c6c(=O)c7ccccc7c(=O)c6c5[nH]c43)c(=O)c12)c1ccccc1` was tested. Which outcome did it give?
**A.** inactive; negative

**Q.** With `Nc1ccccc1N` as the molecule, how does the outcome read?
**A.** active; positive

**Q.** How did the outcome turn out when `O=C(CCl)c1ccc(Cl)cc1Cl` was run?
**A.** active; positive

**Q.** Which outcome does the source give for `Cc1cc(C)c(S(=O)(=O)O)cc1N=Nc1cc(S(=O)(=O)O)c2ccccc2c1O` here?
**A.** inactive; negative

**Q.** `Cc1ccc2oc(=O)ccc2c1` was tested. Which outcome did it give?
**A.** inactive; negative

**Q.** With `CCC(=O)O` as the molecule, how does the outcome read?
**A.** inactive; negative

**Q.** Which outcome does the source give for `CC(C)(c1cc(Br)c(OCC(Br)CBr)c(Br)c1)c1cc(Br)c(OCC(Br)CBr)c(Br)c1` (stereo unspecified) here?
**A.** inactive; negative

**Q.** With `CCCCC(CC)COC(=O)c1ccccc1C(=O)O` (stereo unspecified) as the molecule, how does the outcome read?
**A.** inactive; negative

**Q.** For `C1=CC2C3C=CC(C3)C2C1` (stereo unspecified), which outcome is on record?
**A.** inactive; negative
